{
  "source": "patent US5498632A",
  "about": "“Esters of acyl carnitines with long-chain aliphatic alcohols and pharmaceutical compositions containing same having antibacterial activity” (Sigma-Tau Industrie Farmaceutiche Riunite S.p.A., priority 1992, dated 1996)",
  "key": {"[1]": {"test_system": "murine lymphoid organs (spleen and thymus)", "assay": "Test 2: weight of murine lymphoid organs after repeated oral administration", "format": "in vivo, mouse (male B6 D2 F1)", "conditions": "100 mg/kg/day for 7 consecutive days", "experimental": "Evaluation of the effect of repeated oral administrations of ST 722 on the weight of murine lymphoid organs (spleen and thymus).\nMale B6 D2 F1 mice (C. River) aged 7 weeks (7-8 animals each group) were orally treated with the substance ST 722 at the dose of 100 mg/kg/day for 7 consecutive days. Twenty-four hours after the last administration, the animals were sacrificed, the organs removed and weighed."}, "[2]": {"test_system": "antibody-producer B lymphocytes (spleen of SRBC immunized mice)", "assay": "Test 1: primary antibody production (Jerne test) in spleen of SRBC immunized mice", "format": "in vivo, mouse (male B6 D2 F1)", "experimental": "Evaluation of the \"in vitro-ex vivo\" effect of repeated oral administrations of ST 722 on the primary antibody production (Jerne test) in the spleen of SRBC (Sheep Red Blood Cells) immunized mice.\nMale B6 D2 F1 mice (C. River) aged 8 weeks (6 animals each group) were utilized.\nThe substance (ST 722) was administered per os at the dose of 100 mg/kg/day from day -2 through day +2 (immunization at day 0).\nThe animals were immunized by intraperitoneal route with a concentration of 1.0×10^8 cells/mouse in 0.2 ml of sterile saline.\nFive days later, spleens to be submitted to teasing process were removed from the animals sacrificed by cervical dislocation.\nAfter standardization at 1.0×10^7 cells/ml, the splenocytes (0.1 ml) were mixed with warm agar-Hank's (2 ml) and 10% SRBC in PBS (0.2 ml) and seeded in Petri dishes (samples tested in triplicates) and incubated at 37° C. for 60 min.\nAfter addition of complement (2 ml of guinea pig serum diluted 1:10 in Tris buffer), samples were further incubated at 37° C. for 30 min.\nTo block the haemolysis reaction, the Petri dishes were cooled at 4° C. and the haemolysis plaques were counted.\nThe antibody response to SRBC is expressed as number of plaque forming cells (PFC) per 1.0×10^6 splenocytes as well as per spleen."}, "Gram- bacterial strains": {"test_system": "Gram- bacterial strains", "assay": "Mean MIC in broth and resistant strain number, Gram- strains", "format": "cell-based", "conditions": "18 h; Gram- strains; versus susceptible strains; read-out: Mean MIC values", "how_it_was_run": "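Broth microdilution in Mueller-Hinton broth with serial two-fold compound dilutions. Inoculum from overnight culture standardized to 0.5 McFarland, final 5.0×10^4 CFU/ml. MIC read after 18 h at 37 °C.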"}, "[3]": {"test_system": "Helicobacter pylori NCTC 11637", "assay": "MIC in agar (agar dilution)", "format": "cell-based", "conditions": "for MIC: Helicobacter pylori, NCTC11637", "experimental": "In this experiment the activity of ST 722 and ST 712 against Campylobacter and Helicobacter was investigated.\nCampylobacter fetus ATCC 27374, Campylobacter coli LI 048, Campylobacter jejuni 84-ISS, and Helicobacter pylori NCTC 11637.\nThe culture medium was Columbia agar base supplemented with 7% (V/V) defribinated horse blood (DHB) for Campylobacter strains, and the same medium additioned with Vitox (Oxoid) for Helicobacter strain.\nThe Campylobacter and Helicobacter strains, preserved at -80° C. in DHB containing 10% (V/V) glycerol, were thawed and grown, in their respective culture medium, in culture flasks, which were incubated for 48 hours at 37° C. in a 10% CO2 atmosphere. After this first growth cycle, the bacteria were allowed to go through a second growth cycle in the same conditions as above.\nThe bacterial \"patina\" was then harvested by resuspension in 4-5 ml of Mueller-Hinton broth, the turbidity of which was then assessed according to Mc Farland's criteria (BRAY W. E., Clinical Laboratory Methods, 5th Ed. C. V. MOSBY, St. Louis, Mo. 1957). […]\nWith a Steers-type multipoint inoculator (STEERS E., FOLTZ E. L., GRAVES S., RIDEN J., 1959. Inocula-replicating apparatus for routine testing of antibacterial susceptibility to antibiotics. Antibiot. Chemoter. 9: 307-311) 1-μl volumes of the above standardized suspensions were spot-transferred into the wells of a 96-well microtiter plate, which had previously been filled with 0.2 ml/well of Mueller-Hinton agar 5% DHB, containing the test substances at different concentrations.\nThe plates was then incubated for 48/72 hours at 37° C. in a 10% CO2 atmosphere."}, "[4]": {"conditions": "100 mg/kg/day per os, day -2 through day +2, mean ± S.E."}},
  "note": "Where two headings read alike, the source gives them in different places.",
  "data": [
    {"smiles": "CCCCCCCCCCCOC(=O)CC(C[N+](C)(C)C)OC(=O)CC(C)C", "note": "[ST 722, Isovaleryl-L-Carnitine Undecyl Ester Chloride]", "values": [
      {"measurement": "Body weight", "setting": "[1]", "value": "22.74 ± 0.37", "unit": "g"},
      {"measurement": "Spleen weight", "setting": "[1]", "value": "77.88 ± 2.38", "unit": "mg"},
      {"measurement": "Thymus weight", "setting": "[1]", "value": "52.88 ± 3.20", "unit": "mg"},
      {"measurement": "immunotoxic effect on the parameters examined", "setting": "[1]", "value": "did not provoke any immunotoxic effect"},
      {"measurement": "toxic effect on weight of the lymphoid organs (spleen and thymus)", "setting": "[2]; 100 mg/kg/day per os", "value": "did not show values relating to a toxic effect"},
      {"measurement": "Body weight", "setting": "[2]; [4]", "value": 25.12, "unit": "g"},
      {"measurement": "PFC/10^6 cells", "setting": "[2]; [4]", "value": "261 ± 34", "unit": "PFC/10^6 cells"},
      {"measurement": "PFC/spleen", "setting": "[2]; [4]", "value": 44440, "unit": "PFC/spleen"},
      {"measurement": "Spleen weight", "setting": "[2]; [4]", "value": 94.33, "unit": "mg"},
      {"measurement": "Thymus weight", "setting": "[2]; [4]", "value": 59.50, "unit": "mg"},
      {"measurement": "modification in PFC number after the antigenic challenge", "setting": "[2]; repeated (5 consecutive days) oral administrations", "value": "did not cause a statistically significant modification in PFC number"},
      {"measurement": "MIC", "setting": "Gram- bacterial strains", "value": 35.7, "unit": "µg/mL"},
      {"measurement": "MIC", "setting": "[3]; I = inoculum of 1.0 × 10^5 cells/ml, read-out: MIC in agar", "value": 1.56, "unit": "µg/mL"},
      {"measurement": "MIC", "setting": "[3]; agar medium, inoculum not given, read-out: MIC vs. H. pylori NCTC 11637", "value": 1.56, "unit": "µg/mL"},
      {"measurement": "MIC in agar", "setting": "[3]; II = inoculum of 1.0 × 10^6 cells/ml", "value": 1.56, "unit": "µg/mL"},
      {"measurement": "antibacterial activity for Helicobacter and Campylobacter", "setting": "[3]; agar, Helicobacter and Campylobacter strains", "value": "possess an antibacterial activity"}
    ]}
  ]
}
